Test [1] deals with T1, Cbl-b (Homo sapiens, UniProt Q13191). Put plainly: Cbl-b activity assay (Cbl-b inhibition assay), TR-FRET of Cbl-b interaction with UbcH5B-Ub. The test is classed as biochemical. Particulars: assay buffer with 100 mM NaCl, 60 nM Src kinase; read-out: Cbl-b activity IC50. An outline of the steps: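 Compound-treated Cbl-b was incubated 1.5 h with Src kinase (60 nM final; 30 nM for asterisked values, which also used 50 mM instead of 100 mM NaCl), 1 mM ATP and 5 mM MgCl2. Binding to fluorescent Ub-loaded UbcH5B (C85K mutant) was then read by TR-FRET after 1 h more.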
T1 sequence (Q13191 36-427): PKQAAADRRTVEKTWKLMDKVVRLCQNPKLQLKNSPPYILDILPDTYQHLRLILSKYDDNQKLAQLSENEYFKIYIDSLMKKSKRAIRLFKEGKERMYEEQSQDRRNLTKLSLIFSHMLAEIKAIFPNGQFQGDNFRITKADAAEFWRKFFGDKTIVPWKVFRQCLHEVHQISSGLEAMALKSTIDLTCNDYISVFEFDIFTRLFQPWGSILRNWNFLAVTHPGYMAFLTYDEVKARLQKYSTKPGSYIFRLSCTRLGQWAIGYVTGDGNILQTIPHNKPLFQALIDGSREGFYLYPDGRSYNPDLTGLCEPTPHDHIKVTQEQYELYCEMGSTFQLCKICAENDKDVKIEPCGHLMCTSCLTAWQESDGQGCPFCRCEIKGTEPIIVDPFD
(TR-FRET usually uses a lanthanide donor and a delayed reading to cut background.)

Test [2] addresses T1, Cbl-b. In words: Cbl-b inhibition assay (Cbl-b activity assay, FRET, Biological Example 1; 100 mM NaCl, 60 nM Src kinase). The test is classed as biochemical. To be noted: upper bound stated in text lists; read-out: IC50 values in the Cbl-b inhibition assay of Biological Example 1. In short, it runs like this:
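Inhibition is read as loss of FRET signal. The signal arises when Src-phosphorylated, N-terminal biotinylated Avi-Cbl-b (captured by streptavidin-terbium) binds UbcH5B carrying covalently linked Bodipy-Fluorescein-tagged ubiquitin.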

In the next test the target is Cbl-b (residues 36-427) (Homo sapiens, UniProt Q13191). In words: Cbl-b binding assay (SPR, Biacore T200). Particulars: 20° C., 1:1 binding model. An outline of the steps: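 NeutrAvidin capture chip, 20° C; 50 s injections at 50 μl/min, 90-180 s dissociation; 0.3 M NaCl regeneration. Asterisked column: 50 mM NaCl buffer and 30 nM Src kinase in place of 100 mM NaCl and 60 nM Src kinase. 1:1 fit.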
Sequence of Cbl-b (residues 36-427) (Q13191 36-427): as above
In general terms: SPR reads the build-up and loss of mass on a sensor chip optically.

This is an account of results in patent US20220324835A1 (Nurix Therapeutics, Inc., priority 2018, published 2022).

As for `C[C@H](Cc1nncn1C)c1cccc(NC(=O)c2cc(C(=O)N3C[C@H](O)[C@@H](F)C3)ccn2)c1` [Compound 235, 4-[(3S,4S)-3-fluoro-4-hydroxypyrrolidine-1-carbonyl]-N-[3-[(2R)-1-(4-methyl-4H-1,2,4-triazol-3-yl)propan-2-yl]phenyl]pyridine-2-carboxamide], the 50% inhibitory concentration (IC50) on Cbl-b [1] was 1 to 3 µM; at Cbl-b [2], no more than 10 µM. The same compound registered a Kd on Cbl-b (residues 36-427) of 3 to 10 µM.

As to `C[C@H](Cc1nncn1C)c1cccc(NC(=O)c2cc(C(=O)N3CC[C@H](C#N)C3)ccn2)c1` [Compound 236, 4-[(3S)-3-cyanopyrrolidine-1-carbonyl]-N-[3-[(2R)-1-(4-methyl-4H-1,2,4-triazol-3-yl)propan-2-yl]phenyl]pyridine-2-carboxamide], the results for the half-inhibitory concentration (IC50) at Cbl-b [1] and at Cbl-b [2] were 1 to 3 µM and no more than 10 µM, respectively. Also, the Kd on Cbl-b (residues 36-427) lay in the range of 1 to 3 µM.

Consider `C[C@H](Cc1nncn1C)c1cccc(NC(=O)c2cc(C(=O)N3CC[C@@H](C#N)C3)ccn2)c1` [Compound 238, 4-((R)-3-cyanopyrrolidine-1-carbonyl)-N-(3-((R)-1-(4-methyl-4H-1,2,4-triazol-3-yl)propan-2-yl)phenyl)picolinamide], for which the results for the half-maximal inhibitory concentration (IC50) on Cbl-b [1] and on Cbl-b [2] were 1 to 3 µM and no more than 10 µM, respectively. The Kd at Cbl-b (residues 36-427) was 1 to 3 µM.

For the compound `C[C@H](Cc1nncn1C)c1cccc(NC(=O)c2cc(C(=O)N3CC(O)C(C)(C)C3)ccn2)c1` (stereo partly drawn) [Compound 239, 4-(4-hydroxy-3,3-dimethylpyrrolidine-1-carbonyl)-N-(3-((R)-1-(4-methyl-4H-1,2,4-triazol-3-yl)propan-2-yl)phenyl)picolinamide], the results for the half-maximal inhibitory concentration (IC50) at Cbl-b [1] and on Cbl-b [2] were 1 to 3 µM and no more than 10 µM, respectively. For the same compound, the Kd on Cbl-b (residues 36-427) was 0.1 to 0.3 µM.

Take `CC(O)C1CN(C(=O)c2ccnc(C(=O)Nc3cccc([C@H](C)Cc4nncn4C)c3)c2)C1` (stereo partly drawn) [Compound 241, 4-(3-(1-hydroxyethyl)azetidine-1-carbonyl)-N-(3-((R)-1-(4-methyl-4H-1,2,4-triazol-3-yl)propan-2-yl)phenyl)picolinamide]: the IC50 is 3 to 10 µM at Cbl-b [1] and no more than 10 µM at Cbl-b [2]. Further, the dissociation constant (Kd) on Cbl-b (residues 36-427) was less than 0.1 µM.

For `C[C@H](Cc1nncn1C)c1cccc(NC(=O)c2cc(C(=O)N3CCNCC3)ccn2)c1` [Compound 242, (R)-N-(3-(1-(4-methyl-4H-1,2,4-triazol-3-yl)propan-2-yl)phenyl)-4-(piperazine-1-carbonyl)picolinamide], the IC50 is 3 to 10 µM on Cbl-b [1] and no more than 10 µM at Cbl-b [2]. At Cbl-b (residues 36-427), this compound registered a Kd of 3 to 10 µM.

As to `CNCCNC(=O)c1ccnc(C(=O)Nc2cccc([C@H](C)Cc3nncn3C)c2)c1` [Compound 244, (R)-N2-(3-(1-(4-methyl-4H-1,2,4-triazol-3-yl)propan-2-yl)phenyl)-N4-(2-(methylamino)ethyl)pyridine-2,4-dicarboxamide], the concentration for half-maximal inhibition (IC50) was 1 to 3 µM on Cbl-b [1] and no more than 10 µM at Cbl-b [2]. In addition, the dissociation constant Kd on Cbl-b (residues 36-427) fell in the range of 1 to 3 µM.

With `C[C@H](Cc1nncn1C)c1cccc(NC(=O)c2cc(C(=O)N3CCC(CO)C3)ccn2)c1` (stereo partly drawn) [Compound 245, 4-(3-(hydroxymethyl)pyrrolidine-1-carbonyl)-N-(3-((R)-1-(4-methyl-4H-1,2,4-triazol-3-yl)propan-2-yl)phenyl)picolinamide], the half-maximal inhibitory concentration (IC50) was 1 to 3 µM on Cbl-b [1] and no more than 10 µM on Cbl-b [2]. Besides, the Kd at Cbl-b (residues 36-427) lay in the range of 3 to 10 µM.

On to `C[C@H](Cc1nncn1C)c1cccc(NC(=O)c2cc(C(=O)N3C[C@@H](F)[C@@H](O)C3)ccn2)c1` [Compound 246, cis-4-(3-fluoro-4-hydroxypyrrolidine-1-carbonyl)-N-(3-((R)-1-(4-methyl-4H-1,2,4-triazol-3-yl)propan-2-yl)phenyl)picolinamide], for which the half-inhibitory concentration (IC50) was 1 to 3 µM on Cbl-b [1] and no more than 10 µM at Cbl-b [2]. The Kd at Cbl-b (residues 36-427) fell in the range of 1 to 3 µM.

Take `C[C@H](Cc1nncn1C)c1cccc(NC(=O)c2cc(C(=O)N[C@@H]3CCNC3)ccn2)c1` [Compound 247, N2-[3-[(2R)-1-(4-methyl-4H-1,2,4-triazol-3-yl)propan-2-yl]phenyl]-N4-[(3R)-pyrrolidin-3-yl]pyridine-2,4-dicarboxamide]: the IC50 at Cbl-b [1] is 3 to 10 µM; on Cbl-b [2], no more than 10 µM. Moreover, at Cbl-b (residues 36-427), the equilibrium dissociation constant (Kd) fell in the range of 3 to 10 µM.

In the case of `C[C@H](Cc1nncn1C)c1cccc(NC(=O)c2cc(C(=O)N[C@H]3CCNC3)ccn2)c1` [Compound 248, N2-(3-((R)-1-(4-methyl-4H-1,2,4-triazol-3-yl)propan-2-yl)phenyl)-N4-((s)-pyrrolidin-3-yl)pyridine-2,4-dicarboxamide], the concentration for half-maximal inhibition (IC50) at Cbl-b [1] was 3 to 10 µM; at Cbl-b [2], no more than 10 µM. Moreover, the dissociation constant (Kd) on Cbl-b (residues 36-427) is 3 to 10 µM.

`CN[C@@H]1CCN(C(=O)c2ccnc(C(=O)Nc3cccc([C@H](C)Cc4nncn4C)c3)c2)C1` [Compound 249, N-(3-((R)-1-(4-methyl-4H-1,2,4-triazol-3-yl)propan-2-yl)phenyl)-4-((R)-3-(methylamino)pyrrolidine-1-carbonyl)picolinamide]: the half-maximal inhibitory concentration (IC50) is 1 to 3 µM on Cbl-b [1] and no more than 10 µM at Cbl-b [2]. For the same compound, the equilibrium dissociation constant (Kd) on Cbl-b (residues 36-427) is 1 to 3 µM.

With `CN[C@H]1CCN(C(=O)c2ccnc(C(=O)Nc3cccc([C@H](C)Cc4nncn4C)c3)c2)C1` [Compound 250, N-[3-[(2R)-1-(4-methyl-4H-1,2,4-triazol-3-yl)propan-2-yl]phenyl]-4-[(3S)-3-(methylamino)pyrrolidine-1-carbonyl]pyridine-2-carboxamide], the IC50 at Cbl-b [1] is 1 to 3 µM; at Cbl-b [2], no more than 10 µM. In addition, the equilibrium dissociation constant (Kd) at Cbl-b (residues 36-427) fell in the range of 1 to 3 µM.

On to `CC(Cc1nccn1C)c1cccc(NC(=O)c2cc(C(=O)N3CC[C@H](O)C3)ccn2)c1` (stereo partly drawn) [Compound 252, 4-((S)-3-hydroxypyrrolidine-1-carbonyl)-N-(3-(1-(1-methyl-s1H-imidazol-2-yl)propan-2-yl)phenyl)picolinamide], for which the figures for the half-maximal inhibitory concentration (IC50) at Cbl-b [1] and at Cbl-b [2] were 3 to 10 µM and no more than 10 µM, respectively. On Cbl-b (residues 36-427), this compound had a Kd of 1 to 3 µM.

In the case of `C[C@H](Cc1nccn1C)c1cccc(NC(=O)c2cc(C(=O)N3CC[C@H](O)C3)ccn2)c1` [Compound 252a, 4-((S)-3-hydroxypyrrolidine-1-carbonyl)-N-(3-((R)-1-(1-methyl-1H-imidazol-2-yl)propan-2-yl)phenyl)picolinamide], the results for the IC50 on Cbl-b [1] and at Cbl-b [2] were 1 to 3 µM and no more than 10 µM, respectively. The same compound displayed a Kd at Cbl-b (residues 36-427) of 3 to 10 µM.

Regarding `C[C@H](Cc1nccn1C)c1cccc(NC(=O)c2cc(C(=O)N3C[C@@H](O)C[C@H]3C)ccn2)c1` [Compound 253, 4-((2R,4S)-4-hydroxy-2-methylpyrrolidine-1-carbonyl)-N-(3-((R)-1-(1-methyl-1H-imidazol-2-yl)propan-2-yl)phenyl)picolinamide], the IC50 on Cbl-b [1] was 3 to 10 µM; at Cbl-b [2] it was no more than 10 µM. The same compound returned an equilibrium dissociation constant (Kd) at Cbl-b (residues 36-427) of 3 to 10 µM.

For the compound `C[C@H](Cc1nncn1C)c1cccc(NC(=O)c2cc(C(=O)N3CC[C@H](O)C3)ccc2F)c1` [Compound 254, 2-fluoro-5-((S)-3-hydroxypyrrolidine-1-carbonyl)-N-(3-((R)-1-(4-methyl-4H-1,2,4-triazol-3-yl)propan-2-yl)phenyl)benzamide], the results for the IC50 at Cbl-b [1] and on Cbl-b [2] were 1 to 3 µM and no more than 10 µM, respectively. The same compound gave a Kd at Cbl-b (residues 36-427) of 3 to 10 µM.

As for `CC(C)c1nccc2c1CN(c1cccc([C@H](C)Cc3nncn3C)c1)C2=O` [Compound 259, (R)-4-isopropyl-2-(3-(1-(4-methyl-4H-1,2,4-triazol-3-yl)propan-2-yl)phenyl)-2,3-dihydro-1H-pyrrolo[3,4-c]pyridin-1-one], the IC50 at Cbl-b [1] is 0.301 to 1 µM; at Cbl-b [2] it was no more than 1 µM. The compound also came in with an equilibrium dissociation constant (Kd) at Cbl-b (residues 36-427) of 1 to 3 µM.

Consider `C[C@H](Cc1ncn(C)n1)c1cccc(N2Cc3c(cccc3C(F)(F)F)C2=O)c1` [Compound 263, (R)-2-(3-(1-(1-methyl-1H-1,2,4-triazol-3-yl)propan-2-yl)phenyl)-4-(trifluoromethyl)isoindolin-1-one], for which the IC50 at Cbl-b [1] was 3 to 10 µM; on Cbl-b [2], no more than 10 µM. Also, the Kd on Cbl-b (residues 36-427) fell in the range of 3 to 10 µM.

For `C[C@H](Cc1ncnn1C)c1cccc(N2Cc3c(cccc3C(F)(F)F)C2=O)c1` [Compound 264, (R)-2-(3-(1-(2-methyl-2H-1,2,4-triazol-3-yl)propan-2-yl)phenyl)-4-(trifluoromethyl)isoindolin-1-one], the results for the IC50 on Cbl-b [1] and at Cbl-b [2] were 3 to 10 µM and no more than 10 µM, respectively. This compound yielded a dissociation constant Kd on Cbl-b (residues 36-427) greater than 10 µM.

As to `C[C@H](Cc1nnco1)c1cccc(N2Cc3c(cccc3C(F)(F)F)C2=O)c1` [Compound 266, (R)-2-(3-(1-(1,3,4-oxadiazol-2-yl)propan-2-yl)phenyl)-4-(trifluoromethyl)isoindolin-1-one], the IC50 at Cbl-b [1] was 3 to 10 µM; on Cbl-b [2] it was no more than 10 µM. This compound returned an equilibrium dissociation constant (Kd) at Cbl-b (residues 36-427) greater than 10 µM.

On to `C[C@H](Cc1nccn1C)c1cccc(N2Cc3c(cccc3C(F)(F)F)C2=O)c1` [Compound 267a, (R)-2-(3-(1-(1-methyl-1H-imidazol-2-yl)propan-2-yl)phenyl)-4-(trifluoromethyl)isoindolin-1-one], for which the half-inhibitory concentration (IC50) on Cbl-b [1] was 1 to 3 µM; on Cbl-b [2], no more than 10 µM. Also, the Kd on Cbl-b (residues 36-427) is 3 to 10 µM.

Turning to `CC(Cc1n[nH]cc1CO)c1cccc(N2Cc3c(cccc3C(F)(F)F)C2=O)c1` (stereo not drawn) [Compound 271, 2-(3-(1-(4-(hydroxymethyl)-1H-pyrazol-3-yl)propan-2-yl)phenyl)-4-(trifluoromethyl)isoindolin-1-one], the IC50 is 3 to 10 µM on Cbl-b [1] and no more than 10 µM at Cbl-b [2]. The compound further yielded a dissociation constant (Kd) on Cbl-b (residues 36-427) of 3 to 10 µM.

By IC50 is commonly meant the midpoint of a concentration-inhibition curve. A word on the Kd: it is the concentration at which binding is half-saturated. Higher therefore signals a looser complex.
